The text below walks through data of patent US20240315283A1, “ISOFUCOSTEROL A KEY NUTRIENT FOR PHYTOSTEROL EATING ANIMALS SUCH AS POLLEN EATING AND ALGAE-EATING AND PLANKTON EATING ORGANISMS” (APIX BIOSCIENCES, priority 2021, published 2024).

The test system of one test is adult worker honeybees. Put plainly: Survival of cohorts of bees on diets containing isofucosterol. The settings on record: pollen-free diet with isofucosterol vs isofucosterol-free diet. Type of test: in vivo, honeybee. As for the experimental part:
Newly emerged adult worker honeybees fed with a diet treatment and ad libitum access to water. The treatment diet contained the isofucosterol. Newly emerged bees were removed from the brood frame and cohorts of 30 bees per replicate were housed in plastic rearing cages. In all experiments, 10 cohorts of ˜30 bees each were used for each treatment group. In all diet's carbohydrate was maintained at 60% using sucrose and fat was maintained at 8%. Consumption of each diet was measured every day over the course of the experiment. The number of bees alive in the box was counted each day for 14 days.
Example 2 represents the survival of cohorts of bees confined to feed on diets containing specific concentrations of isofucosterol (0%, 0.5% and 1% weight of diet), as shown in FIG. 2.

For test [1], the system named is adult worker honeybees (Apis mellifera) or adult worker bumblebees (Bombus terrestris). Kind of test: Two-choice preference assay, diet with or without isofucosterol. Type of test: in vivo. The conditions noted are these: choice of diet with or without isofucosterol, 5 days, FIG. 1. The protocol: One treatment diet contained the isofucosterol and the other contained no sterol. Newly emerged bees were removed from the brood frame and cohorts of 30 bees per replicate were housed in plastic rearing cages. In all experiments, 10 cohorts of ˜30 bees each were used for each treatment group. […] Consumption of each diet was measured every 24 h for 5 days. Preference index was calculated as (amount of treatment consumed−amount of control consumed)/(total amount of food consumed). In Example 1, cohorts of bees were given a choice of diet with or without isofucosterol.

A further test deals with Black soldier flies. Put plainly: Black soldier fly feeding experiments. Type of test: in vivo, Hermetia illucens. As for the experimental part:
Adult survival and number of egg masses laid from a population fed with a pollen substitute diet (as specified in US2019/0090507 to Apix Biosciences) was measured daily using the methods of rearing described in Thinn and Kainoh 2022. JARQ 56 (2), 211-217 (2022). […] Black soldier fly (BSF) larvae were fed with a diet containing 22% protein, 4% fat as described in Hogsette 1992. J. Econ. Entomol. 85(6): 2291-2294 until ecclosion. Sterols were sourced as pure compounds added directly to diet to a total quantity of 0.1%. […] J. Entomol. 118: 297-306, 2021. […] Sterols were added to diet. Measurement of sterols in tissues was performed after saponification of BSF tissues using GC-MS as described in Boukid et al. 2022. Insects 12, 672.

The test system of test [2] is Honeybees. Kind of test: Brood production in APIDEA nuc colonies. Type of test: in vivo, honeybee. The settings on record: pollen-free diet with isofucosterol vs isofucosterol-free diet, increasing concentration. As for the experimental part:
Honeybees: Fully functional insulated styrofoam APIDEA nucs comprised 5 mini frames populated with adult workers and 1 mated laying queen bee were populated with 300-400 ml of young adult workers (˜N<1,000 bees of mixed ages).
Each treatment was tested with 3-6 colonies; each colony was fed with a 60-100 g patty (solid diet) on the top feeder fitted with a mesh floor. Diet was fed on the first day and again on day 6; the quantity consumed was measured on day 6 and day 15. If no larvae or eggs/queen are observed by day 6 then the experiment is terminated. The number of capped brood cells was counted on day 15. The number of bee seams was estimated during each inspection. Sugar syrup (34%) and water was provided in feeders inside the tent to prevent carbohydrate starvation and to stimulate foraging activity.
In Example 3, bees were fed with a diet containing 10-18% protein, 6% fat, 1% vitamins/minerals and >75% carbohydrates.
As the concentration of isofucosterol increased, the amount of brood produced in each colony increased (N>3 colonies/treatment). The pupae, and the number of new adults was counted over the entire 10-week period.

The subject of test [3] is Honeybees. Kind of test: Long term Apidea experiment with bees fed a multiplicity of sterols. Type of test: in vivo, honeybee. The conditions noted are these: diet with isofucosterol and multiplicity of sterols; cycles of 21 days. As for the experimental part: Honeybees: Fully functional insulated styrofoam Apidea™ nucs comprised 3-5 mini frames populated with adult workers and 1 mated laying queen bee were populated with 300-400 ml of young adult workers (˜N<1,000 bees of mixed ages).
Each treatment was tested with 3-6 colonies, each colony was fed ad libitum with the solid diet on the top feeder fitted with a mesh floor, and the quantity consumed was assessed at every feeding. The number of capped brood cells was assessed every 12 days. The number of bee seams was recorded during each inspection. If the colony reaches maximal size for the Apidea box, a super is added. Sugar syrup (34%) and water was provided in feeders inside the tent to prevent carbohydrate starvation and to stimulate foraging activity.
In Example 4A, bees were fed with a diet containing 15-30% protein, 4-12% fat, 1% vitamins/minerals and >40% carbohydrates (Diet 1). […]
FIG. 4—results of experiment 4A: Mean area of sealed brood (cm2) assessed every 12 days over a 15-week period. […]

The structures appear in SMILES notation.

Take `C/C=C(/CC[C@@H](C)[C@H]1CC[C@H]2[C@@H]3CC=C4C[C@@H](O)CC[C@]4(C)[C@H]3CC[C@]12C)C(C)C` [isofucosterol, Isofucosterol]: the “survival of worker bees” value in the test with adult worker honeybees is “increases”. Moreover, the “isofucosterol concentration in the diet that bees preferred to consume” value in test [1] is “at least 0.05%”. Further, the “egg laying and egg hatching performance and adult longevity” value in the test with Black soldier flies (cultivated Black Soldier Fly or beetle adults fed diet containing isofucosterol) is “improves”. Besides, in the test on Black soldier flies (isofucosterol delivered through a pollen-free diet), the “performance of adult and larval BSF” value was “increases the performance”. In addition, the figures for the bee brood production result with Honeybees [2] and in the test on Honeybees [2] (listed as Isofucosterol) were “increased” and “increases”, respectively. Moreover, the “brood production / brood development supported” value in the test with Honeybees [3] is listed as “more than 4 cycles”.
